According to US8063225B2, “Tricyclic compound derivatives useful in the treatment of neoplastic diseases, inflammatory disorders and immunomodulatory disorders” (Chembridge Corporation, priority 2006, dated 2011):
pIC50: −log10 of the molar value.

How the values were obtained:
Alk = molecular target: T1, Alk (Homo sapiens, UniProt Q9UM73); experiment: Tyrosine kinase assay (Kinase-Glo or AlphaScreen), Alk; details: biochemical tyrosine kinase assay
T1 construct: 6×His- or GST-tagged kinase domain fragments of the corresponding RTKs expressed in baculovirus system; host or cells: baculovirus system
T1 sequence (Q9UM73 1116-1392 limits assumed, species assumed): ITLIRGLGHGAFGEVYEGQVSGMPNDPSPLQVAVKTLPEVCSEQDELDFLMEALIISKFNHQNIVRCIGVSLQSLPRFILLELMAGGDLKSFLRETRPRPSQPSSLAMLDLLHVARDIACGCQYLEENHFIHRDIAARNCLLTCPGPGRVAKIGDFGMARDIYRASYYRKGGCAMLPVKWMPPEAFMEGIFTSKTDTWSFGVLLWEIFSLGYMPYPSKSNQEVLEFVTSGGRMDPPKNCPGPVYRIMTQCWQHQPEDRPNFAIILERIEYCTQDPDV
Summary of the method: (§1)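 Kinase-Glo format: baculovirus-expressed tagged kinase domain, poly(Glu-Tyr), 10 μM ATP, pH 7.5 Tris, MgCl2/MnCl2, DTT; 60 min at 37° C; remaining ATP by luciferase luminescence. Other kinases run identically, enzyme titrated to ≤30% ATP consumption. IC50 by non-linear regression, quadruplicates.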

InsR = molecular target: T2, InsR (Homo sapiens, UniProt P06213); experiment: Tyrosine kinase assay (Kinase-Glo or AlphaScreen), InsR; details: biochemical tyrosine kinase assay
T2 construct: 6×His- or GST-tagged kinase domain fragments of the corresponding RTKs expressed in baculovirus system; host or cells: baculovirus system
T2 sequence (P06213 1023-1298 limits assumed, species assumed): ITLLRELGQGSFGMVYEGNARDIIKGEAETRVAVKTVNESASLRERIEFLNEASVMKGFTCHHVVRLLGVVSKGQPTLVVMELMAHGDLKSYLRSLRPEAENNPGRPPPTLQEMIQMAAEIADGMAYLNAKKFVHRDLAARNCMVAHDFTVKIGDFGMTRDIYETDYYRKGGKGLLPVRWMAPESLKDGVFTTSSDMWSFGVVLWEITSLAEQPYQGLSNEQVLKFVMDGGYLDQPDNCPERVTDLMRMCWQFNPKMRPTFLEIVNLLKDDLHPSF
Summary of the method: as §1

Jak2 = molecular target: T3, Jak2 (Homo sapiens, UniProt O60674); experiment: Tyrosine kinase assay (Kinase-Glo or AlphaScreen), Jak2; details: biochemical tyrosine kinase assay
T3 construct: 6×His- or GST-tagged kinase domain fragments of the corresponding RTKs expressed in baculovirus system; host or cells: baculovirus system
T3 sequence (O60674 849-1124 limits assumed, species assumed): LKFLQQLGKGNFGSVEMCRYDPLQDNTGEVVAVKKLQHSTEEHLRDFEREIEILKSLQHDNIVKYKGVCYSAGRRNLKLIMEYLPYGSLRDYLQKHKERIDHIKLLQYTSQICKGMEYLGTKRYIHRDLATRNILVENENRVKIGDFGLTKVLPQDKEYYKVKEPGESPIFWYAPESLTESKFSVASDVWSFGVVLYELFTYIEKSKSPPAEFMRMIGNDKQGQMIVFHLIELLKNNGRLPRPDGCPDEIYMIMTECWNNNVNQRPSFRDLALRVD
Summary of the method: as §1

IGF1 receptor = molecular target: T4, IGF1 receptor (Homo sapiens, UniProt P08069); experiment: ELISA-based assay of IGF1 receptor autophosphorylation inhibition in cells; type: cell-based; details: IGF1R phosphorylation inhibition in MCF7 cells
T4 construct: MCF7 human breast cancer cells expressing IGF1 receptor; endogenous in cells; host or cells: MCF7 human breast cancer cells
T4 sequence (P08069 741-1367 limits assumed): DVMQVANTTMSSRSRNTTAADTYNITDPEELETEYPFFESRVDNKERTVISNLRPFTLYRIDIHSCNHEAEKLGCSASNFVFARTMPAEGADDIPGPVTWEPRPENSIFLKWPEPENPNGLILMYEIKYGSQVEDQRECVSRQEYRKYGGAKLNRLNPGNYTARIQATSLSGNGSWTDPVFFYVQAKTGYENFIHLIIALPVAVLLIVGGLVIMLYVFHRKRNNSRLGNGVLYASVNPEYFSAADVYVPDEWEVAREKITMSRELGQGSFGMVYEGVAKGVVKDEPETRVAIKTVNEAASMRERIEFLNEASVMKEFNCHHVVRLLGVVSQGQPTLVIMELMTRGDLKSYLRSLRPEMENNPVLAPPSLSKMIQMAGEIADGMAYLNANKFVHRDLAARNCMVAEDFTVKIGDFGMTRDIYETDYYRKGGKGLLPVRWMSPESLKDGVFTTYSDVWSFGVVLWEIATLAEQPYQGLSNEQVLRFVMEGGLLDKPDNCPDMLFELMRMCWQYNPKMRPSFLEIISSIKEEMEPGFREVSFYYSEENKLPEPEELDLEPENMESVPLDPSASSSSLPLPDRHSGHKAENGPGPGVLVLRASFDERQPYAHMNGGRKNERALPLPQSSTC
T4 sequence (P08069 31-736 partner limits assumed): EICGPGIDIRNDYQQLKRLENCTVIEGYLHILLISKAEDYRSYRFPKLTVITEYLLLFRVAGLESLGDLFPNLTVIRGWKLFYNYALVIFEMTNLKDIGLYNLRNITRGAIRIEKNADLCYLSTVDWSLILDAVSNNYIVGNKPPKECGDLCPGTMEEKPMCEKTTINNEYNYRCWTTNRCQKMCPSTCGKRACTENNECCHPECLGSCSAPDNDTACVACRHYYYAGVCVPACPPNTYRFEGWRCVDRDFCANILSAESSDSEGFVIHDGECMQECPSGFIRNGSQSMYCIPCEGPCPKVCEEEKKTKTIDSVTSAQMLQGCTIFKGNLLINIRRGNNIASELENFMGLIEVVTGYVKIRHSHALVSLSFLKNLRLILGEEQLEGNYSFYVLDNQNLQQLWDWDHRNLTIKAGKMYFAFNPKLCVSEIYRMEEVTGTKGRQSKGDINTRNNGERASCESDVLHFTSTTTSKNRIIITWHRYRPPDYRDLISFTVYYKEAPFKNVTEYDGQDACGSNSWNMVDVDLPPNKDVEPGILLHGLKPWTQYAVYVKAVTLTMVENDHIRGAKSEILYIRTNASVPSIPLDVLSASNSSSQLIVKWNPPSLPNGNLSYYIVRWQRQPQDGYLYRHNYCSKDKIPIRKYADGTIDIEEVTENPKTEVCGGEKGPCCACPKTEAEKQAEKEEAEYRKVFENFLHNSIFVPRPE
Protocol: In another embodiment, compounds that interact with the IGF1R kinase domain are tested in a cell-based assay system. In accordance with this embodiment, cells expressing a full-length IGF1 receptor or a fragment thereof containing the IGF1R kinase domain, are contacted with a candidate or a control compound and the ability of the compound to block tyrosine kinase activity of IGF1R within a cell is determined. This assay may be used to screen a single compound or a large library of candidate compounds. Typically, the cells or cell lines are of mammalian origin and they can express the IGF1 receptor, or functional IGF1R kinase domain fragment, endogenously or be genetically engineered to express the IGF1R, or functional fragment thereof. The ability of the candidate compound to inhibit IGF1R kinase activity can be determined by methods known to those skilled in the art. For example, the inhibition can be determined by ELISA-type assay or Western blot analysis with cell lysates or immunoprecipitated IGF1R receptor using various anti-IGF1R and anti-phosphotyrosine antibodies.
In general, cells expressing IGF1R are treated with modulators (i.e., inhibitors or activators) of IGF1R kinase activity and cell lysates are produced from these treated cells. IGF1Rs are isolated from the lysate by immunoprecipitation and analyzed for phosphotyrosine content. Alternatively, or in addition, cellular protein substrates phosphorylated by IGFR may be immunoprecipitated from the lysates and their degree of tyrosine phosphorylation determined.
MCF7 human breast cancer cells expressing IGF1 receptor or an engineered […] fibroblast cell line NIH 3T3 overexpressing full-length IGF1R are an exemplary cellular models in which to perform such assays. Such cells may be maintained in DMEM medium supplemented with 10% fetal bovine serum (FBS), 4% L-glutamine, 1% antibiotic solution (penicillin-Streptomycin) in a humidified atmosphere of 95% air and 5% CO2 at 37° C. Confluent cells in T175 cell culture flasks are incubated overnight with serum-free DMEM medium. After the serum starvation step, the cells are detached and split into a standard 96-well cell culture plate (one T175 flask per plate, 30 μl of cell suspension per plate well). Tested inhibitors from their 10 mM stock solutions in DMSO are subsequently added at various concentrations in serum-free DMEM medium for 1 hour incubation at 37° C. in CO2-incubator; total DMSO concentration in both treated and control wells is adjusted to 1%. Cells are then stimulated for 10 minutes with 100 nM IGF-1 added in 30 μl DMEM. After treatment, cells are lysed by addition of 30 μl of 4× lysis buffer (phosphate-buffered saline (PBS), 2% Triton-X100, 1 mM phenylmethylsulphonyl fluoride (PMSF) and 8 mM activated orthovanadate), mixing and incubation for 15 minute at room temperature. To prepare assay plates, 96-well ELISA Plates (Pierce Chemical, Reacti-bind plates) were coated by goat-anti-rabbit Fc antiserum by adding 0.25 μg antiserum per well in 0.2M sodium bicarbonate buffer per well and incubating overnight at 4° C. After incubation, the plate is washed three times by PBS with 0.02% Tween-20, supplied with 25 ng/50 μl per well of anti-IGF1R antibody (C-20, Santa Cruz Biotechnology) and incubated for several hours to overnight. Prior to the addition of the prepared cellular lysates, the antibody solution is aspirated, wells washed with PBS and supplied with 25 μl per well of Starting Block buffer (Pierce Chemical).
To measure tyrosine phosphorylation of the beta-subunits of the IGF1R, 25-50 μl of the lysates are transferred from the stimulation plate to the wells of the prepared assay plate and incubated overnight at 4° C. The wells are washed with PBS with 0.02% Tween-20, incubated with 50 μl of 1:3000 dilution of anti-phosphotyrosine 4G10-HRP antibody conjugate (Upstate Biotechnology) for 2 hours at room temperature and washed again. […]

IGF1R tyrosine kinase = molecular target: T5, IGF1R tyrosine kinase (Homo sapiens, UniProt P08069); experiment: IGF1R tyrosine kinase assay (Kinase-Glo ATP depletion or PT66/PT100 AlphaScreen); details: biochemical tyrosine kinase assay
T5 construct: 6×His- or GST-tagged kinase domain fragments of the corresponding RTKs expressed in baculovirus system; host or cells: baculovirus system
T5 sequence (P08069 999-1274 limits assumed): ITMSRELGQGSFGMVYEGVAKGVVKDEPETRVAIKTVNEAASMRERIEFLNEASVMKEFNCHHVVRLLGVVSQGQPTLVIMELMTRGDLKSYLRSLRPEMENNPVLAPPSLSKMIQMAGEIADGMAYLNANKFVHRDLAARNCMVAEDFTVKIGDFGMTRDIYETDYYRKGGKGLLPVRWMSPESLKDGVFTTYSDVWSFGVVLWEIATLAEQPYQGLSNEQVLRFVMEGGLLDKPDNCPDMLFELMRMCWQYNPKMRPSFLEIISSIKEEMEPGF
Summary of the method: as §1

H929 (multiple myeloma) = experiment: Cell proliferation inhibition, Cell Titer-Glo, H929; type: cell-based; details: Homo sapiens, NCI-H929; cell proliferation assay, H929 cells
Protocol: (§2) IGF1R and other tyrosine kinase inhibitors can inhibit the proliferation of certain cancer cell lines indicating their possible therapeutic utility for treating the corresponding cancer types. Cancer cell lines of interest and control normal lines, including CHO, HEK293, BA/F3, MM1, H929, COLO205, PC3, DU145, MCF7, Panc1, ACHN, Hep G2, H460, K562, TT, U87-G, CAOV-3, SK-MEL5, Karpas 299, are plated in white, clear-bottomed 384-well cell culture plates at 2500-5000 cells per well and supplied with dilutions of tested compounds After a desired period of time (typically 3 days), the number of viable cells is quantitated by using Cell Titer-Glo Luminescent Cell Viability Assay (Promega), a cell proliferation assay system based on detection of total amount of ATP present as a measure of cell metabolic activity. The plated cells are mixed with the Cell Titer-Glo developing reagent and counted in a luminescence multiwell plate reader according to the standard manufacturer's protocol to generate IC50 curves for cell proliferation inhibition.
(§3) IGF1R and other tyrosine kinase inhibitors can inhibit the proliferation of certain cancer cell lines indicating their possible therapeutic utility for treating the corresponding cancer types. Cancer cell lines of interest and control normal lines, including CHO, HEK293, BA/F3, COLO205, PC3, DU145, MCF7, Panc1, ACHN, Hep G2, H460, K562, TT, U87-MG, CAOV-3, SK-MEL5, Karpas 299 and human multiple myeloma cell lines H929, MM1s, MM1r, UTMC2, CPM2, KMS11, My5, KMS12PE, My7, JJN3, KMS18, U266, SKMM2, RPMI-8226 are plated in white, clear-bottomed 384-well cell culture plates at 2500-5000 cells per well and supplied with dilutions of tested compounds After a desired period of time (typically 3 days), the number of viable cells is quantitated by using Cell Titer-Glo Luminescent Cell Viability Assay (Promega), a cell proliferation assay system based on detection of total amount of ATP present as a measure of cell metabolic activity. The plated cells are mixed with the Cell Titer-Glo developing reagent and counted in a luminescence multiwell plate reader according to the standard manufacturer's protocol to generate IC50 curves for cell proliferation inhibition. Results are typically reported as percent of growth (% viability =(OD72h(compound)−ODday0))/(OD72h(no compound)−ODday0). Alternatively, viable cells are quantitated by using the conventional colorimetric MTT assay. The MTT assay is based on the cleavage of the yellow tetrazolium salt MTT to purple formazan crystal by metabolic active cells. The formazan is then solubilized, and the concentration determined by optical density at 570 nm. The cells plated and incubated with a compound as described above are supplemented with the solution of MTT and incubated for 2-3 hours. The growth medium is removed and dimethyl sulfoxide is added into each well to dissolve the formazan. The absorbance is measured on an ELISA plate reader with a test wavelength of 570 nm and a background subtraction wavelength of 630 nm to obtain sample signal (OD570-OD630). […] The results are reported in terms of IC50 value for a particular compound and a cell line in the standard 3-day proliferation assay using Cell Titer-Glo. […] The results are reported in terms of IC50 value for a particular compound and a cell line in the standard 3-day proliferation assay using MTT assay.

[1] = test system: CHO (chinese hamster ovary); experiment: Cell proliferation inhibition, Cell Titer-Glo, CHO; type: cell-based; details: Cricetulus griseus; cell proliferation assay, CHO cells
Protocol: as §2, §3

SMILES	pIC50 (Alk)	pIC50 (InsR)	pIC50 (Jak2)	pIC50 (IGF1 receptor)	pIC50 (IGF1R tyrosine kinase)	pIC50 (H929 (multiple myeloma))	pIC50 [1]
CN1CCC(N2C(=O)c3cc4nc(-c5c(NCC(O)COc6ccccc6)cc[nH]c5=O)[nH]c4cc3C2=O)CC1 (centres unmarked) [compound 23]	4.82 to 5.30	5.30 to 6.30	5.30 to 6.30	4.82 to 5.30	5.30 to 6.30	–	–
Cc1cc(OCC(O)CNc2cc[nH]c(=O)c2-c2nc3cc4c(cc3[nH]2)C(=O)N(C2CCN(C)CC2)C4=O)ccc1Cl (centres unmarked) [compound 10]	< 4.82	5.30 to 6.30	4.82 to 5.30	< 4.82	4.82 to 5.30	–	–
CN1CCC(N2C(=O)c3cc4nc(-c5c(NCC(O)COc6ccc(C(C)(C)C)cc6)cc[nH]c5=O)[nH]c4cc3C2=O)CC1 (centres unmarked) [compound 14]	< 4.82	5.30 to 6.30	5.30 to 6.30	5.30 to 6.30	5.30 to 6.30	–	–
O=C1c2cc3nc(-c4c(NC[C@@H](O)c5cccc(Cl)c5)cc[nH]c4=O)[nH]c3cc2C(=O)N1CCCN1CCOCC1 [compound 12]	< 4.82	< 4.82	< 4.82	5.30 to 6.30	< 4.82	–	–
O=C1c2cc3nc(-c4c(NC[C@@H](O)c5cccc(Cl)c5)cc[nH]c4=O)[nH]c3cc2C(=O)N1CC1CCN(CCO)CC1 [compound 13]	5.30 to 6.30	> 6.30	5.30 to 6.30	5.30 to 6.30	> 6.30	–	–
O=C1c2cc3nc(-c4c(NC[C@@H](O)c5cccc(Cl)c5)cc[nH]c4=O)[nH]c3cc2C(=O)N1CCN1CCCC1 [compound 17]	–	–	–	< 4.82	–	–	–
O=C1NC(=O)c2cc3[nH]c(-c4c(NC[C@@H](O)c5cccc(Cl)c5)cc[nH]c4=O)nc3cc21 [compound 11]	4.82 to 5.30	4.82 to 5.30	4.82 to 5.30	5.30 to 6.30	< 4.82	–	–
CN1CCN(CCN2C(=O)c3cc4nc(-c5c(NC[C@@H](O)c6cccc(Cl)c6)cc[nH]c5=O)[nH]c4cc3C2=O)CC1 [compound 20]	5.30 to 6.30	5.30 to 6.30	5.30 to 6.30	< 4.82	5.30 to 6.30	–	–

More lines, main results first:

pIC50 (Alk)	pIC50 (InsR)	pIC50 (Jak2)	pIC50 (IGF1 receptor)	pIC50 (IGF1R tyrosine kinase)	pIC50 (H929 (multiple myeloma))	SMILES	pIC50 [1]
5.30 to 6.30	5.30 to 6.30	5.30 to 6.30	< 4.82	> 6.30	–	CN1CCCC1CCN1C(=O)c2cc3nc(-c4c(NC[C@@H](O)c5cccc(Cl)c5)cc[nH]c4=O)[nH]c3cc2C1=O (some centres unmarked) [compound 18]	–
5.30 to 6.30	> 6.30	> 6.30	–	> 6.30	< 4.82	CN1CCC(N2Cc3cc4nc(-c5c(NC[C@@H](O)COc6cc7c(cc6Cl)OCO7)cc[nH]c5=O)[nH]c4cc3C2=O)CC1 [compound 157]	< 4.82
5.30 to 6.30	> 6.30	> 6.30	–	> 6.30	4.82 to 5.30	CN1CCC(N2Cc3cc4nc(-c5c(NC[C@@H](O)COc6cc(F)ccc6Cl)cc[nH]c5=O)[nH]c4cc3C2=O)CC1 [compound 150]	< 4.82
5.30 to 6.30	5.30 to 6.30	5.30 to 6.30	< 4.82	> 6.30	–	CN1CCN(CCCN2C(=O)c3cc4nc(-c5c(NC[C@@H](O)c6cccc(Cl)c6)cc[nH]c5=O)[nH]c4cc3C2=O)CC1 [compound 19]	–
5.30 to 6.30	5.30 to 6.30	5.30 to 6.30	< 4.82	5.30 to 6.30	–	CN1CCC(N2C(=O)c3cc4nc(-c5c(NC[C@H](O)COc6ccc(F)cc6)cc[nH]c5=O)[nH]c4cc3C2=O)CC1 [compound 22]	–
5.30 to 6.30	5.30 to 6.30	5.30 to 6.30	4.82 to 5.30	5.30 to 6.30	–	CN1CCC(N2C(=O)c3cc4nc(-c5c(NC[C@@H](O)COc6ccc(F)cc6)cc[nH]c5=O)[nH]c4cc3C2=O)CC1 [compound 21]	–
